# Assay results as given in EP2042491A1, “Pyridazines as fungicides” (Bayer CropScience AG, priority 2007, dated 2009).
# Test: physchem
# Details: not given
row,SMILES,chromatographic logP
1,Cc1nnc(Cl)c(-c2c(F)cccc2F)c1NC(C)C(C)C (racemic) [1-62],2.99
2,Cc1nnc(Cl)c(-c2c(F)cccc2Cl)c1NC(C)C(C)C (racemic) [1-82],3.21
3,Cc1nnc(Cl)c(-c2c(F)cccc2F)c1N[C@H](C)C(C)C [1-46],3.04
4,Cc1nnc(Cl)c(-c2c(F)cccc2F)c1NCC(C)C [1-48],2.64
5,Cc1nnc(Cl)c(-c2c(F)cccc2F)c1NCC(C)(C)C [1-49],3.06
6,Cc1nnc(Cl)c(-c2c(F)cccc2F)c1NC(C)C [1-51],2.36
7,Cc1nnc(Cl)c(-c2c(F)cccc2F)c1NCC1CC1 [1-52],2.46
8,COCC(C)Nc1c(C)nnc(Cl)c1-c1c(F)cccc1F (stereo not shown) [1-53],2.25
9,"Cc1nnc(Cl)c(-c2c(F)cccc2F)c1N1CCC(C)CC1 [1-58, 3-Chlor-4-(2,6-difluorphenyl)-6-methyl-5-(4-methylpiperidin-1-yl)pyridazin]",3.87
10,Cc1nnc(Cl)c(-c2c(F)cccc2F)c1N1CCOCC1 [1-59],2.19
11,Cc1nnc(Cl)c(-c2c(F)cccc2F)c1NCc1ccccc1 [1-63],2.67
12,Cc1nnc(Cl)c(-c2c(F)cccc2F)c1N1CCCC1C (stereo not shown) [1-64],3.08
13,Cc1nnc(Cl)c(-c2c(F)cccc2F)c1N1CCCC1 [1-65],2.57
14,Cc1nnc(Cl)c(-c2c(F)cccc2F)c1N(C)CC(C)C [1-66],3.65
15,Cc1nnc(Cl)c(-c2c(F)cccc2Cl)c1NC1CC1 [1-86],2.35
16,Cc1nnc(Cl)c(-c2c(F)cccc2Cl)c1N1CCOCC1 [1-94],2.39
17,Cc1nnc(Cl)c(-c2c(F)cccc2Cl)c1N1CC[Si](C)(C)CC1 [1-95],4.75
18,Cc1nnc(Cl)c(-c2c(F)cccc2Cl)c1N1CCC2(C)CC2C1 (stereo not shown) [1-96],4.25
19,Cc1nnc(Cl)c(-c2c(F)cccc2Cl)c1N1CCCC1C (stereo not shown) [1-97],3.32
20,Cc1nnc(Cl)c(-c2c(F)cccc2Cl)c1N1CCCC1 [1-98],2.82
21,Cc1nnc(Cl)c(-c2c(F)cccc2Cl)c1Nc1ccc(Cl)cc1 [1-99],3.18
22,Cc1nnc(Cl)c(-c2c(F)cccc2F)c1OCC(C)C [2-32],3.57
23,C#CCOc1c(C)nnc(Cl)c1-c1c(F)cccc1F [2-36],2.5
24,Cc1nnc(Cl)c(-c2c(F)cccc2F)c1Oc1ccc(Cl)cc1 [2-39],3.86
25,Cc1nnc(Cl)c(-c2c(F)cccc2F)c1OCC1CC1 [2-41],3.1

row,SMILES,chromatographic logP
1,"COc1ccc(COc2c(C)nnc(Cl)c2-c2c(F)cccc2F)cc1 [2-42, 3-Chlor-4-(2,6-difluorphenyl)-5-(4-Methoxybenzyloxy)-6-methylpyridazin]",3.35
2,Cc1nnc(Cl)c(-c2c(F)cccc2F)c1OCC1(C)CC1 [2-43],3.53
3,Cc1nnc(Cl)c(-c2c(F)cccc2Cl)c1Oc1ccc(Cl)cc1 [2-60],4.13
4,Cc1nnc(Br)c(-c2c(F)cccc2Cl)c1Oc1ccc(Cl)cc1 [2-62],4.12
5,Cc1nnc(Cl)c(-c2c(F)cccc2Cl)c1Oc1ccccc1F [2-65],3.51
6,Cc1nnc(Cl)c(-c2c(F)cccc2Cl)c1Oc1cccc(F)c1 [2-66],3.65
7,Cc1nnc(Cl)c(-c2c(F)cccc2Cl)c1Oc1ccc(F)cc1 [2-67],3.56
8,Cc1nnc(Cl)c(-c2c(F)cccc2Cl)c1Oc1cccc(C(F)(F)F)c1 [2-68],4.13
9,Cc1nnc(Cl)c(-c2c(F)cccc2Cl)c1Oc1cccc(C#N)c1 [2-69],3.14
10,Cc1nnc(Cl)c(-c2c(F)cccc2Cl)c1Oc1ccc(Cl)cc1Cl [2-70],4.46
11,Cc1nnc(Cl)c(-c2c(F)cccc2Cl)c1Oc1cccc(C(C)(C)C)c1 [2-71],4.92
12,COc1cc(Cl)cc(Oc2c(C)nnc(Cl)c2-c2c(F)cccc2Cl)c1 [2-72],4.13
13,COc1cccc(Oc2c(C)nnc(Cl)c2-c2c(F)cccc2Cl)c1 [2-73],3.56
14,Cc1nnc(Cl)c(-c2c(F)cccc2Cl)c1Oc1cccc(Cl)c1 [2-74],4.03
15,Cc1nnc(Cl)c(-c2c(F)cccc2Cl)c1Oc1ccc(Cl)c(Cl)c1 [2-75],4.41
16,Cc1cccc(Oc2c(C)nnc(Cl)c2-c2c(F)cccc2Cl)c1 [2-76],3.99
17,Cc1nnc(Cl)c(-c2c(F)cccc2Cl)c1Oc1ccc(C#N)cc1 [2-77],3.18
18,Cc1nnc(Cl)c(-c2c(F)cccc2Cl)c1Oc1cccc(N(C)C)c1 [2-78],3.85
19,Cc1nnc(Cl)c(-c2c(F)cccc2Cl)c1Oc1cccc(OC(F)(F)F)c1 [2-79],4.32
20,Cc1nnc(Cl)c(-c2c(F)cccc2Cl)c1Oc1cc(Cl)ccc1Cl [2-80],4.27
21,Cc1nnc(Cl)c(-c2c(F)cccc2Cl)c1Oc1cc(Cl)cc(Cl)c1 [2-81],4.61
22,Cc1nnc(Cl)c(-c2c(F)cccc2Cl)c1Oc1ccc(Oc2ccc(Cl)cc2)cc1 [2-82],5.03
23,COCCOCCOc1c(C)nnc(Cl)c1-c1c(F)cccc1Cl [2-83],2.58
24,COCCOc1c(C)nnc(Cl)c1-c1c(F)cccc1Cl [2-84],2.6
25,Cc1nnc(Cl)c(-c2c(F)cccc2Cl)c1OC1CCOCC1 [2-85],2.68

# Second part, the compound after the results:
row,chromatographic logP,SMILES
1,4.35,"Cc1nnc(Cl)c(-c2c(F)cccc2F)c1Sc1ccc(Cl)cc1 [3-20, 3-Chlor-4-(2,6-difluorphenyl)-5-(4-chlorphenylsulfanyl)-6-methylpyridazin]"
2,4.37,Cc1nnc(Cl)c(-c2c(F)cccc2F)c1SC(C)C(C)C (stereo not shown) [3-21]
3,3.99,CCC(C)Sc1c(C)nnc(Cl)c1-c1c(F)cccc1F (stereo not shown) [3-23]
4,3.57,Cc1nnc(Cl)c(-c2c(F)cccc2F)c1SC(C)C [3-25]
5,4.65,"Cc1nnc(Cl)c(-c2c(F)cccc2Cl)c1Sc1ccc(Cl)cc1 [3-33, 3-Chlor-4-(2-chlor-6-fluorphenyl)-5-(4-chlorphenylsulfanyl)-6-methylpyridazin]"
6,4.41,Cc1cccc(Sc2c(C)nnc(Cl)c2-c2c(F)cccc2Cl)c1 [3-38]
7,4.87,Cc1nnc(Cl)c(-c2c(F)cccc2Cl)c1Sc1ccc(Cl)cc1Cl [3-39]
8,3.99,Cc1nnc(Cl)c(-c2c(F)cccc2Cl)c1Sc1ccccc1F [3-40]
9,4.51,Cc1nnc(Cl)c(-c2c(F)cccc2Cl)c1Sc1cccc(C(F)(F)F)c1 [3-41]
10,4.08,Cc1nnc(Cl)c(-c2c(F)cccc2Cl)c1Sc1cccc(F)c1 [3-42]
11,4.03,COc1cccc(Sc2c(C)nnc(Cl)c2-c2c(F)cccc2Cl)c1 [3-43]
12,4.03,Cc1nnc(Cl)c(-c2c(F)cccc2Cl)c1Sc1ccc(F)cc1 [3-44]
13,4.72,Cc1nnc(Cl)c(-c2c(F)cccc2Cl)c1Sc1cccc(OC(F)(F)F)c1 [3-46]
14,3.47,"Cc1nnc(Cl)c(-c2c(F)cccc2F)c1[S+]([O-])c1ccc(Cl)cc1 (stereo not shown) [4-1, 3-Chlor-4-(2,6-difluorphenyl)-5-[(4-chlorphenyl)sulfinyl]-6-methylpyridazin]"
15,1.41,"Cc1nnc(Cl)c(-c2c(F)cccc2F)c1O [5-1, 3-Chlor-4-(2,6-difluorphenyl)-5-hydroxy-6-methylpyridazin]"
16,3.39,"COc1nnc(C)c(N2CCC(C)CC2)c1-c1c(F)cccc1F [6-1, 4-(2,6-Difluorphenyl)-3-methoxy-6-methyl-5-(4-methylpiperidin-1-yl)pyridazin]"
17,2.69,"NN(Cc1ccccc1)C(=O)Cc1c(F)cccc1Cl [III-1, N-Benzyl-2-(2-chlor-6-fluorphenyl)acetohydrazid]"
18,2.58,"Cc1nn(Cc2ccccc2)c(=O)c(-c2c(F)cccc2Cl)c1O [VI-1, 2-Benzyl-4-(2-chlor-6-fluorphenyl)-5-hydroxy-6-methylpyridazin-3(2H)-on]"
19,0.88,"Cc1n[nH]c(=O)c(-c2c(F)cccc2Cl)c1O [VII-1, 4-(2-Chlor-6-fluorphenyl)-5-hydroxy-6-methylpyridazin-3(2H)-on]"
20,3.24,"Cc1nnc(Cl)c(-c2c(F)cccc2Cl)c1Cl [VIII-1, 3,5-Dichlor-4-(2-chlor-6-fluorphenyl)-6-methylpyridazin]"
21,2.93,"Cc1nnc(Cl)c(-c2c(F)cccc2F)c1Cl [VIII-2, 3,5-Dichlor-4-(2,6-difluorphenyl)-6-methylpyridazin]"

# Test: not given
# Details: Table 3; HPLC on reversed-phase C18, 40°C, 0.1% aqueous formic acid / acetonitrile, linear gradient 10-95% acetonitrile
row,logP^a),SMILES
1,"4,65","Cc1nnc(Cl)c(-c2c(F)cccc2Cl)c1Sc1ccc(Cl)cc1 [3-33, 3-Chlor-4-(2-chlor-6-fluorphenyl)-5-(4-chlorphenylsulfanyl)-6-methylpyridazin]"

# Same assay, conditions: given in the running text of the preparation examples; method presumably as footnote a) of the tables
row,SMILES,logP
1,"CCOC(=O)/C(C)=N\N(Cc1ccccc1)C(=O)Cc1c(F)cccc1Cl [V-1, Ethyl (2Z)-2-{benzyl[(2-chlor-6-fluorphenyl)acetyl] hydrazono}propanoat]",3.87
